Experimental data as given in US20190071416A1, “COMPOUNDS FOR TREATMENT OF CANCER AND EPIGENETICS” (Agency For Science, Technology and Research, priority 2015, published 2019).

Molecular target: T1, SMYD3 (Homo sapiens, UniProt Q9H7B4)
T1 sequence (Q9H7B4 1-428): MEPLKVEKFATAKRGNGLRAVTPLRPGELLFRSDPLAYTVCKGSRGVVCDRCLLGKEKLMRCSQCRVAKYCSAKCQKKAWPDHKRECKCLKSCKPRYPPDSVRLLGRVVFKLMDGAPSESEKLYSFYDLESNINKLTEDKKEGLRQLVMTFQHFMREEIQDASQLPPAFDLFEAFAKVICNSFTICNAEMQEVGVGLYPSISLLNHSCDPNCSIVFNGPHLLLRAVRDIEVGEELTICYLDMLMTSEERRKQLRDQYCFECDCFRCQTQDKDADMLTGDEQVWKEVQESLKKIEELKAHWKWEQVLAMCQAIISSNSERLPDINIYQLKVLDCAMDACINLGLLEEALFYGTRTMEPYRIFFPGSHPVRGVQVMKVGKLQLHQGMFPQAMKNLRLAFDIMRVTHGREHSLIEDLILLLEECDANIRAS
Experiment: SMYD3 biochemical assay (MTase-Glo, MAP3K2 peptide substrate)
Details: Table 3; MTase assay, MAP3K2 peptide substrate; read-out: IC50
How it was run: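 Luminescent readout of SAH production (coupled SAH→ATP conversion, MTase-Glo) after SMYD3 reacted 30 min at room temperature with 1.0 µM SAM and 10 µM MAP3K2 peptide, both final. Non-linear regression gave IC50 values.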

| Structure (SMILES) | IC50 [µM] |
| --- | --- |
| CCCOC(=O)N1CCN(C(=O)c2ccc3c(Cl)cc(-c4cccc(O)c4)nc3c2)CC1 [B143, Propyl 4-(4-chloro-2-(3-hydroxyphenyl)quinoline-7-carbonyl)piperazine-1-carboxylate] | 0.016 |
| CCCOC(=O)N1CCN(C(=O)c2ccc3c(Cl)cc(-c4ccn(S(C)(=O)=O)c4)nc3c2)CC1 [B252, Propyl 4-(4-chloro-2-(1-(methylsulfonyl)-1H-pyrrol-3-yl)quinoline-7-carbonyl)piperazine-1-carboxylate] | 0.52 |
| CCCOC(=O)N1CCN(C(=O)c2ccc3c(Cl)c(C)c(-c4ccccc4)nc3c2)[C@@H](C)C1 [B016, Propyl (S)-4-(4-chloro-3-methyl-2-phenylquinoline-7-carbonyl)-3-methylpiperazine-1-carboxylate] | 0.15 |
| CCCOC(=O)N1CCN(C(=O)c2ccc3c(Cl)c(C)c(-c4ccc(C)cc4)nc3c2)CC1 [B025, Propyl 4-(4-chloro-3-methyl-2-(p-tolyl)quinoline-7-carbonyl)piperazine-1-carboxylate] | 0.67 |
| CCCOC(=O)N1CCN(C(=O)c2ccc3c(Cl)c4c(nc3c2)CC(CCN(C)C)CC4)CC1 (stereo not drawn) [A105, Propyl 4-(9-chloro-6-(2-(dimethylamino)ethyl)-5,6,7,8-tetrahydroacridine-3-carbonyl)piperazine-1-carboxylate] | 0.09 |
| CCCOC(=O)N1CCN(C(=O)c2ccc3c(Cl)cc(-c4cnc5[nH]nc(C)c5c4)nc3c2)C[C@H]1C [B199, Propyl (R)-4-(4-chloro-2-(3-methyl-1H-pyrazolo[3,4-b]pyridin-5-yl)quinoline-7-carbonyl)-2-methylpiperazine-1-carboxylate] | 0.35 |
| CCCOC(=O)N1CCN(C(=O)c2ccc3c(Cl)c4c(nc3c2)CC(c2ncccc2F)CC4)C[C@H]1C (stereo partly drawn) [A115, Propyl (2R)-4-(9-chloro-6-(3-fluoropyridin-2-yl)-5,6,7,8-tetrahydroacridine-3-carbonyl)-2-methylpiperazine-1-carboxylate] | 0.27 |
| CCCOC(=O)N1CCN(C(=O)c2ccc3c(Cl)cc(-c4ccc(N5CCCC5)cc4)nc3c2)C[C@H]1C [B075, Propyl (R)-4-(4-chloro-2-(4-(pyrrolidin-1-yl)phenyl)quinoline-7-carbonyl)-2-methylpiperazine-1-carboxylate] | 0.44 |
| CCCOC(=O)N1CCN(C(=O)c2ccc3c(Cl)cc(-c4ccc(N)cc4)nc3c2)C[C@H]1C [B074, Propyl (R)-4-(2-(4-aminophenyl)-4-chloroquinoline-7-carbonyl)-2-methylpiperazine-1-carboxylate] | 0.13 |
| CCCOC(=O)N1CCN(C(=O)c2ccc3c(Cl)cc(-c4ccc5[nH]nc(C)c5c4)nc3c2)[C@@H](C)C1 [B198, Propyl (S)-4-(4-chloro-2-(3-methyl-1H-indazol-5-yl)quinoline-7-carbonyl)-3-methylpiperazine-1-carboxylate] | 0.2 |
| CCCOC(=O)N1CCN(C(=O)c2ccc3c(Cl)cc(-c4ccc5cn[nH]c5c4)nc3c2)CC1 [B129, Propyl 4-(4-chloro-2-(1H-indazol-6-yl)quinoline-7-carbonyl)piperazine-1-carboxylate] | 0.087 |
| CCCOC(=O)N1CCN(C(=O)c2ccc3c(Cl)cc(-c4ccc(O)c(F)c4)nc3c2)CC1 [B191, Propyl 4-(4-chloro-2-(3-fluoro-4-hydroxyphenyl)quinoline-7-carbonyl)piperazine-1-carboxylate] | 0.14 |
| CCCOC(=O)N1CCN(C(=O)c2ccc3c(Cl)cc(-c4cnc(C)s4)nc3c2)CC1 [B166, Propyl 4-(4-chloro-2-(2-methylthiazol-5-yl)quinoline-7-carbonyl)piperazine-1-carboxylate] | 3.67 |
| C[C@@H]1CN(C(=O)c2ccc3c(Cl)cc(-c4ccn(C)c4)nc3c2)CCN1C(=O)C[C@H]1CCC(=O)N1 [D001, (R)-5-(2((R)-4-(4-Chloro-2-(1-methyl-1H-pyrrol-3-yl)quinoline-7-carbonyl)-2-methylpiperazin-1-yl)-2-oxoethyl)pyrrolidin-2-one] | 13.6 |
| CCCOC(=O)N1CCN(C(=O)c2ccc3c(Cl)cc(-c4cccc(N)c4)nc3c2)C[C@H]1C [B078, Propyl (R)-4-(2-(3-aminophenyl)-4-chloroquinoline-7-carbonyl)-2-methylpiperazine-1-carboxylate] | 0.13 |
| CCCOC(=O)N1CCN(C(=O)c2ccc3c(Cl)cc(-c4ccc(C(N)=O)cc4)nc3c2)C[C@H]1C [B063, Propyl (R)-4-(2-(4-carbamoylphenyl)-4-chloroquinoline-7-carbonyl)-2-methylpiperazine-1-carboxylate] | 0.08 |
| CCCOC(=O)N1CCN(C(=O)c2ccc3c(Cl)cc(-c4ccc(C(C)(C)O)cc4)nc3c2)C[C@H]1C [B265, Propyl (R)-4-(4-chloro-2-(4-(2-hydroxypropan-2-yl)phenyl)quinoline-7-carbonyl)-2-methylpiperazine-1-carboxylate] | 0.067 |

| Structure (SMILES) | IC50 [µM] |
| --- | --- |
| CCCOC(=O)N1CCN(C(=O)c2ccc3c(Cl)cc(-c4cnn(C5COC5)c4)nc3c2)CC1 [B271, Propyl 4-(4-chloro-2-(1-(oxetan-3-yl)-1H-pyrazol-4-yl)quinoline-7-carbonyl)piperazine-1-carboxylate] | 0.034 |
| CCCOC(=O)N1CCN(C(=O)c2ccc3c(Cl)cc(C4CC4)nc3c2)CC1 [B125, Propyl 4-(4-chloro-2-cyclopropylquinoline-7-carbonyl)piperazine-1-carboxylate] | 0.56 |
| CCCOC(=O)N1CCN(C(=O)c2ccc3c(Cl)c(C)c(-c4ccc(F)cc4)nc3c2)CC1 [B022, Propyl 4-(4-chloro-2-(4-fluorophenyl)-3-methylquinoline-7-carbonyl)piperazine-1-carboxylate] | 0.85 |
| CCCOC(=O)N1CCN(C(=O)c2ccc3c(Cl)cc(-c4ccc5ocnc5c4)nc3c2)C[C@H]1C [B243, Propyl (R)-4-(2-(benzo[d]oxazol-5-yl)-4-chloroquinoline-7-carbonyl)-2-methylpiperazine-1-carboxylate] | 0.063 |
| CCCOC(=O)N1CCN(C(=O)c2ccc3c(Cl)cc(-c4cnn(C5CCCC5)c4)nc3c2)C[C@H]1C [B278, Propyl (R)-4-(4-chloro-2-(1-cyclopentyl-1H-pyrazol-4-yl)quinoline-7-carbonyl)-2-methylpiperazine-1-carboxylate] | 0.022 |
| CCCOC(=O)N1CCN(C(=O)c2ccc3c(Cl)c(C)c(-c4cccc(CN)c4)nc3c2)CC1 [B038, Propyl 4-(2-(3-(aminomethyl)phenyl)-4-chloro-3-methylquinoline-7-carbonyl)piperazine-1-carboxylate] | 0.099 |
| CCCOC(=O)N1CCN(C(=O)c2ccc3c(Cl)c(C)c(-c4ccc(OC)cc4)nc3c2)CC1 [B031, Propyl 4-(4-chloro-2-(4-methoxyphenyl)-3-methylquinoline-7-carbonyl)piperazine-1-carboxylate] | 0.28 |
| Cc1cc(C(=O)N2CCN(C(=O)c3ccc4c(Cl)c5c(nc4c3)CCCC5)CC2)no1 [A012, (9-Chloro-5,6,7,8-tetrahydroacridin-3-yl)(4-(5-methylisoxazole-3-carbonyl)piperazin-1-yl)methanone] | 1.67 |
| CCCOC(=O)N1CCN(C(=O)c2ccc3c(Cl)c4c(nc3c2)CCC(C#N)C4)CC1 (stereo not drawn) [A046, Propyl 4-(9-chloro-7-cyano-5,6,7,8-tetrahydroacridine-3-carbonyl)piperazine-1-carboxylate] | 0.8 |
| CCCOC(=O)N1CCN(C(=O)c2ccc3c(Cl)cc(-c4nccs4)nc3c2)C[C@H]1C [B080, Propyl (R)-4-(4-chloro-2-(thiazol-2-yl)quinoline-7-carbonyl)-2-methylpiperazine-1-carboxylate] | 10 |
| CCCOC(=O)N1CCN(C(=O)c2ccc3c(Cl)c4c(nc3c2)C(C)CCC4)C[C@H]1C (stereo partly drawn) [A127, Propyl (2R)-4-(9-chloro-5-methyl-5,6,7,8-tetrahydroacridine-3-carbonyl)-2-methylpiperazine-1-carboxylate] | 0.11 |
| C[C@@H]1CN(C(=O)c2ccc3c(Cl)cc(-c4ccc(C(C)(C)O)cc4)nc3c2)CCN1C(=O)OCCF [B267, 2-Fluoroethyl (R)-4-(4-chloro-2-(4-(2-hydroxypropan-2-yl)phenyl)quinoline-7-carbonyl)-2-methylpiperazine-1-carboxylate] | 0.15 |
| CCCOC(=O)N1CCN(C(=O)c2ccc3c(Cl)cc(-c4ccn(C)c4)nc3c2)C[C@H]1C [B268, Propyl (R)-4-(4-chloro-2-(1-methyl-1H-pyrrol-3-yl)quinoline-7-carbonyl)-2-methylpiperazine-1-carboxylate] | 0.017 |
| CCCOC(=O)N1CCN(C(=O)c2ccc3c(Cl)c4c(nc3c2)CC(c2ccc(C)cn2)CC4)CC1 (stereo not drawn) [A130, Propyl 4-(9-chloro-6-(5-methylpyridin-2-yl)-5,6,7,8-tetrahydroacridine-3-carbonyl)piperazine-1-carboxylate] | 0.13 |
| CCCOC(=O)N1C2CCC1CN(C(=O)c1ccc3c(Cl)c4c(nc3c1)CCCC4)C2 [A009, Propyl 3-(9-chloro-5,6,7,8-tetrahydroacridine-3-carbonyl)-3,8-diazabicyclo[3.2.1]octane-8-carboxylate] | 0.36 |
| CCCOC(=O)N1CCN(C(=O)c2ccc3c(Cl)cc(-c4ccc(CO)cc4)nc3c2)CC1 [B255, Propyl 4-(4-chloro-2-(4-(hydroxymethyl)phenyl)quinoline-7-carbonyl)piperazine-1-carboxylate] | 0.028 |
